Earlier results in paper PMC8426237, “A first-in-human phase I study of TAS0728, an oral covalent binding inhibitor of HER2, in patients with advanced solid tumors with HER2 or HER3 aberrations” (Investigational New Drugs, 2021).
Read-outs that look alike come from different tables or passages of the source.

Settings: cited from earlier work; for Diarrhea toxicity grade: HER2-positive breast cancer; for Diarrhea in patients: approved oral HER2-inhibitory compounds

Row | Structure (SMILES) | Diarrhea toxicity grade (LUX-BREAST-1/−3 studies) | Diarrhea in patients | Diarrhea toxicity grade (ExteNET trial) | Response of patients with tumors harboring HER2 G778_P780dup
1 | CN(C)C/C=C/C(=O)Nc1cc2c(Nc3ccc(F)c(Cl)c3)ncnc2cc1O[C@H]1CCOC1 [afatinib] | Grade 3 or 4 | associated with severe diarrhea | – | –
2 | CS(=O)(=O)CCNCc1ccc(-c2ccc3ncnc(Nc4ccc(OCc5cccc(F)c5)c(Cl)c4)c3c2)o1 [lapatinib] | – | associated with severe diarrhea | – | –
3 | CCOc1cc2ncc(C#N)c(Nc3ccc(OCc4ccccn4)c(Cl)c3)c2cc1NC(=O)/C=C/CN(C)C [neratinib] | – | associated with severe diarrhea | Grade 3 or 4 | respond to treatment
4 | Cc1cc(Nc2ncnc3ccc(NC4=NC(C)(C)CO4)cc23)ccc1Oc1ccn2ncnc2c1 [tucatinib] | – | associated with severe diarrhea | – | –
